Results taken from patent US9458437B2, “Neuroprotective peptides that inhibit interaction between palmitoyl acyl transferase zinc-finger DHHC type containing 17 (zD17) and c-jun N-terminal kinase (JNK)” (The University of British Columbia, priority 2011, dated 2016).

Experiments:
zD17-JNK3 interaction = zD17-JNK3 interaction (Rattus norvegicus, UniProt P49187); experiment: co-immunoprecipitation of zD17 with JNK3 in cortical neuronal cultures; type: cell-based; design: diminished the co-immunoprecipitation of zD17 with JNK3; endogenous in cells; host or cells: primary cortical neurons of embryonic (E18-19) Wistar rat; settings: for zD17-JNK3 interaction (co-immunoprecipitation), baseline: no NMDA
Experimental: (§1) All animal experiments were approved by the Animal Care Committee of the University of British Columbia. Primary cortical cultures were prepared from Wistar rat (UBC Animal Care Centre, Vancouver, BC, Canada) brains at embryonic days 18-19. Cultures were maintained in Neurobasal medium supplemented with B27 and 0.5 mM glutamax (Invitrogen™) as described previously (Yang et al., 2009).
(§2) The protocols for protein extraction have been described previously (Yang et al., 2009). For co-immunoprecipitation, cultured cells were washed with ice-cold PBS followed by incubation with 0.5 ml Gentle Lysis Buffer (GLB) containing 25 mM Tris-HCl (pH 7.4), 2 mM EDTA, 1 mM EGTA, 10 mM NaCl, 0.5% Triton X-100 and 10% Glycerol supplemented with the Complete Protease Inhibitor Tablets (Roche Applied Science™, Indianapolis, Ind., USA) and 1 mM PMSF. Total protein concentration was determined with the BioRad™ Protein Assay kit. Lysates were first precleaned by incubating with Protein A-Sepharose beads (Roche Applied Science™) for 1 h at 4° C., followed by incubation with indicated antibodies (>16 h at 4° C.) and protein A Sepharose bead (2 h at 4° C.). Lysates of rat brain tissues were precleaned with IgG and protein A-beads. Immunoprecipitates were washed three times with GLB buffer; boiled in 2× loading buffer with 1 mM dithiothreitol (DTT) for 3 min; and analyzed with SDS-PAGE as described previously (Yang et al., 2009). The relative intensities of the bands on immunoblots were analyzed and quantified using Image J™ (NIH).

zD17-JNK1 interaction = target: T1, zD17-JNK1 interaction (Rattus norvegicus, UniProt P49185); experiment: co-immunoprecipitation of zD17 with JNK1 in neuronal cultures; type: cell-based
T1 construct: endogenous in cells; host or cells: primary cortical neurons of embryonic Wistar rat
Experimental: as §1
as §2, with “Lysates were first precleaned by incubating with Protein A-Sepharose beads (Roche Applied Science™) for 1 h at 4° C., followed by incubation with indicated antibodies (>16 h at 4° C.) and protein A Sepharose bead (2 h at 4° C.). Lysates of rat brain tissues were precleaned with IgG and protein A-beads.” left out

zD17-JNK2 interaction = target: T2, zD17-JNK2 interaction (Rattus norvegicus, UniProt P49186); experiment: co-immunoprecipitation of zD17 with JNK2 in neuronal cultures; type: cell-based
T2 construct: endogenous in cells; host or cells: primary cortical neurons of embryonic Wistar rat
Experimental: as §1, §2

cultured neurons = experiment: axonal development in cultured neurons (Tau-1 labelling); type: cell-based, rat
Experimental: (§3) For biochemical studies, neurons were seeded in six-well culture plates with a density of 7.5×10^5 cells per well. For LDH assay and cell death detection, 24-well culture plates were used with a neuron density of 2.5×10^5 cells per well. Neurons of 14-17 days in vitro (DIV) were used for experiments. […] HEK 293 cells were maintained in DMEM (Invitrogen™) supplemented with 10% fetal bovine serum and 1% penicillin/streptomycin. For protein expression in cell lines, cells were transfected with Calcium Phosphate Transfection reagent (Promega™, San Luis Obispo, Calif., USA) and used 24 h later as described previously (Yang et al., 2009). The JNK inhibitor, L-JNKI, was purchased from Alexis Biochemicals™ (San Diego, Calif.). Thrombin was obtained from BIOPUR™ (Bubendorf, Switzerland). Other assay reagents without indication were obtained from Sigma™.
Cultured hippocampal neurons on glass coverslips were used for immunostaining. After treatments indicated in the text, neurons were fixed with 2% paraformaldehyde for 3 min at room temperature followed by permeabilization with ice-cold methanol for 10 min at −20° C. The coverslips were then washed three times with PBS and immunostained with appropriate antibodies dissolved in PBS for 1 h at room temperature. After washing three times with PBS, coverslips were incubated with Alexa-labeled secondary antibodies from Invitrogen for an additional 1 h. For mitochondrial detection, neuronal cultures were incubated at 37° C. for 30 min with 2 μM MitoTracker-TR (Invitrogen™). Coverslips were then fixed and mounted with ProLong Gold Antifade Reagent (Invitrogen™). Fluorescence was captured using a Zeiss Observer Z1™ microscope and all images were analyzed with ImageJ™ and processed using Adobe Photoshop™.

neuronal cultures = experiment: LDH assay and PI staining, NMDA excitotoxicity-induced neuronal cell death; type: cell-based, rat; settings: pretreatment, NMDA challenge 1 h, 24 h survival
Experimental: as §3
Neuronal cultures were challenged with indicated concentrations of NMDA for 1 h, followed by 24 h survival. The release of lactate dehydrogenase (LDH) was measured with an in vitro toxicology assay kit (Sigma™) according to the manufacturer's instructions. Spectrophotometric measurement was performed on a Multilabel Plate Reader (Envision™ 2103, Perkin Elmer™). The LDH reading represents the primary absorbance at a wavelength of 490 nm after subtraction of background absorbance at 690 nm. LDH readings were then converted to a percentage of neuronal death by dividing by the readings from cultures incubated with 1% triton for 15 min representing total LDH. Following the LDH assay, propidium iodide (PI) (Sigma™) was added to the medium at a final concentration of 1 μg/ml and neurons were stained for 30 min at 30° C. After fixation with 4% paraformaldehyde, neurons were washed with 1×PBS and stained with Hoechst™ 33342 (Sigma™). The fluorescence of PI and Hoechst™ were examined with laser microscopy and analyzed with ImageJ™.

JNK3 = target: T3, JNK3 (Rattus norvegicus, UniProt P49187); experiment: kinase assay (KA) on JNK3 immunoprecipitated from cell lysates; type: cell-based
T3 construct: cell lysates were prepared and JNK was immunoprecipitated with specific antibodies; endogenous in cells; host or cells: rat primary neuronal cultures; JNK3 immunoprecipitated from lysate
Experimental: JNK activity was measured with an in vitro kinase assay as described elsewhere (see, for e.g.: Khatlani et al., 2007). Briefly, cell lysates were prepared and JNK was immunoprecipitated with specific antibodies. The immnoprecipitates were then resuspended in 1× kinase buffer (Cell Signaling Technology™) supplemented with 200 μM ATP and 250 μg/ml GST-c-jun (1-89), and incubated at 30° C. for 30 min. Reactions were terminated by the addition of SDS-PAGE sample buffer. Phosphorylated c-jun was resolved by SDS-PAGE and detected with anti-p-c-jun.

Sequence of zD17-JNK3 interaction (P49187 whole entry): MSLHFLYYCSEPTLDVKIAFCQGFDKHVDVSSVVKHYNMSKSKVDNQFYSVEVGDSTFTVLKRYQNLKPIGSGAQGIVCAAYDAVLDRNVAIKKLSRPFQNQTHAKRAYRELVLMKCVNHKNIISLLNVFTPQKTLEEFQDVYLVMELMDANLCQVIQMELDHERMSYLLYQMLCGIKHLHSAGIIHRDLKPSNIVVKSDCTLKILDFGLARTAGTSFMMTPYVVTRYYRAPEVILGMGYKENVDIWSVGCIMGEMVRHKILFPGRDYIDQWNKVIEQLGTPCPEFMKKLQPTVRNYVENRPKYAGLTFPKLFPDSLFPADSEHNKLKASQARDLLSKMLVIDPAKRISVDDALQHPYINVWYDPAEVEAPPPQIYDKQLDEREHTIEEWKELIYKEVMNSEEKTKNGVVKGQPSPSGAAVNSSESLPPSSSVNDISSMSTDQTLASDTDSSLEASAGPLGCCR
T3 sequence (P49187 whole entry): as above
T2 sequence (P49186 whole entry): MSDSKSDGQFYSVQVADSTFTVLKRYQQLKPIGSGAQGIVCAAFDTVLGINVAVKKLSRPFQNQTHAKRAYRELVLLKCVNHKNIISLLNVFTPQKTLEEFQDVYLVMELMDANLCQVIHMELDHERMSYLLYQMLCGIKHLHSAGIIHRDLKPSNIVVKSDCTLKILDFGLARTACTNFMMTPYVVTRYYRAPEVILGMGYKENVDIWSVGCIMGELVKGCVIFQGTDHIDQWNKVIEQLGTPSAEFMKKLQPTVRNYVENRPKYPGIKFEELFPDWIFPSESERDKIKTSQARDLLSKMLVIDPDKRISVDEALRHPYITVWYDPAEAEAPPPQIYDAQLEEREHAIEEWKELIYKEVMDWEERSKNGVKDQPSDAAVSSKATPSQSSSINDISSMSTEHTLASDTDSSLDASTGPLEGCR
T1 sequence (P49185 whole entry): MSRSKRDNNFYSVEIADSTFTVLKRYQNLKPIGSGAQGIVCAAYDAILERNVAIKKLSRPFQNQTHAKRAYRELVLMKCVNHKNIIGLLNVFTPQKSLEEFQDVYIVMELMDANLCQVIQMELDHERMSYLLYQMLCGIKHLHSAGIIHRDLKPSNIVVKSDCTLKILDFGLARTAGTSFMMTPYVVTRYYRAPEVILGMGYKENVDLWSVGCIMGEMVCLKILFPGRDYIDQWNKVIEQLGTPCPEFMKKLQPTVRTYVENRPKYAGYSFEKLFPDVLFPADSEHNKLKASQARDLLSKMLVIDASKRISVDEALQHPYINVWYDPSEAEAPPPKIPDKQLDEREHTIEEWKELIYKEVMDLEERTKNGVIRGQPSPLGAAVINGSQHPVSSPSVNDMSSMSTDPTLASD

## CCCCCCCCCCCCCCC(Br)C(=O)O (stereo not drawn) [2-BrPA, 2-bromopalmitate]
zD17-JNK3 interaction
  zD17-JNK3 interaction (co-immunoprecipitation), baseline: robustly enhanced

## N[C@@H](CCC(=O)O)C(=O)O [Glutamate, glutamate]
zD17-JNK3 interaction
  zD17 interaction with JNK3, fold increase compared with control: 2.6±0.2 fold
zD17-JNK1 interaction
  zD17 interaction with JNK1, fold increase compared with control: 1.4±0.1 fold
zD17-JNK2 interaction
  zD17 interaction with JNK2, fold increase compared with control: 1.7±0.2 fold

## CN[C@H](CC(=O)O)C(=O)O [NMDA, N-methyl-D-aspartic acid]
zD17-JNK3 interaction
  zD17 interaction with JNK3, fold increase compared with control: 2.5±0.3 fold
zD17-JNK1 interaction
  zD17 interaction with JNK1, fold increase compared with control: 1.4±0.1 fold
zD17-JNK2 interaction
  zD17 interaction with JNK2, fold increase compared with control: 2.1±0.4 fold

## Oc1c2ccccc2c2c3c(cccc13)N=N2 [SP600125, reference compound]
Cultured neurons; SP600125 incubation, control 161.2±3.9
  axon length: 84.9±1.6%
Cultured neurons; incubation of cultured neurons, Tau-1 marker
  axon initiation rate normalized to control: 18.2±4.1%

## IL-1β: cytokine used to induce inflammation stress
zD17-JNK3 interaction; 10 ng/ml, 16 h
  fold increase of zD17-JNK3 interaction: 1.88±0.23 fold

## MTPLMWAAYGTGSVGPTRLL (NIMoEmut NIMoE sequence with point mutations on three charged amino acids at positions 10, 12, and 15) [reference compound]
zD17-JNK3 interaction
  enhancement of the zD17-JNK3 interaction induced by NMDA/excitotoxicity: did not selectively block enhancement
Neuronal cultures
  excitotoxicity-induced cell death as measured by LDH release and PI staining: no protective effects
JNK3; neuronal cultures
  enhancement of JNK3 activity induced by NMDA: did not selectively block enhancement

## NVKGESALDLAKQ (listed as Homo sapiens) [DIPep1, control peptide derived from an unrelated region of zD17 (255-267), reference compound]
Neuronal cultures
  excitotoxicity-induced cell death as measured by LDH release and PI staining: no protective effects

## TNF-α
zD17-JNK3 interaction; 50 ng/ml, 6 h
  fold increase of zD17-JNK3 interaction: 1.53±0.11 fold

## TPLHWATRGGHLSMV (listed as Homo sapiens) [NIMoD, peptide comprising motif-D of zD17, fused to HIV-1 Tat transduction domain]
zD17-JNK3 interaction
  zD17-JNK3 interaction (co-immunoprecipitation), baseline: significantly diminished
JNK3; neuronal cultures
  JNK3 basal activity: reduction of JNK3 basal activity
JNK3; pretreatment of cells 1 μM for 2 h
  JNK3 basal activity, fold change to control: 0.72±0.07 fold
